# Experimental data as given in patent US20260007601A1, “IONIZABLE CATIONIC LIPID COMPOUND AND COMPOSITION FOR DELIVERING NUCLEIC ACID AND USE THEREOF” (BEIJING YOUCAREKECHUANG PHARMACEUTICAL TECHNOLOGY CO., LTD., priority 2023, published 2026).
# “And” between values parts separate entries of the source, which are not always exact repeats. Identical values can stand only once.
# Experiments:
# female BALB/C mice = assay: Mouse in vivo imaging of Fluc-mRNA LNP formulations; set-up: average radiation intensity (mRNA expression): unit not given here; conditions: for average radiation intensity (mRNA expression): 10 μg Fluc-mRNA LNP intramuscularly
# How it was run: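 Female BALB/C mice (4–6 weeks, 17–19 g) received LNP carrying 10 μg Fluc-mRNA intramuscularly. Imaging substrate given intraperitoneally at 6 h, 24 h, 48 h and 7 d; after 5 min free movement, average radiance read by IVIS Spectrum imaging.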
# [1] = Encapsulation rate, drug loading concentration and total RNA concentration detection (RiboGreen); type: physicochemical
# 293T cells = assay: Fluorescence detection of Fluc-mRNA (cell transfection efficiency of LNP formulations); type: cell-based
# How it was run: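 293T cells at 10,000 per well, adhered overnight, then given LNPs carrying 0.3 μg Fluc-mRNA (cationic:neutral:structured:polymer-conjugated lipid 49:10:39.5:1.5 molar). After 24 h, luciferase signal read with luciferase kit reagents on an IVIS imaging system as transfection efficiency.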
# [2] = LNP formulation of the named lipid
smiles,measurement,setting,value
"CCCCCCCCCCCOC(=O)CCCCCN(CCCCCCCC(=O)OC(CCCCCCCC)CCCCCCCC)CCN(C)CCO [YK-201, heptadecan-9-yl-8-(2-((2-hydroxyethyl)(methylamino))ethyl)(6-oxo-6-((undecanyloxy)hexyl)amino)octanoate]","average radiation intensity, times that of ALC-0315",female BALB/C mice; 6 h,3.39 times
same,"average radiation intensity, times that of HHMA",female BALB/C mice; 6 h,4.47 times
same,"average radiation intensity, times that of SM-102",female BALB/C mice; 6 h,4.21 times
same,"average radiation intensity, times that of compound 21",female BALB/C mice; 6 h,4.76 times
same,"average radiation intensity, times that of compound 23",female BALB/C mice; 6 h,4.81 times
same,"mRNA expression level, times that of YK-204",female BALB/C mice; 6 h,81.10 times
same,"mRNA expression level, times that of YK-223",female BALB/C mice; 6 h,276.05 times
same,average radiation intensity (mRNA expression),female BALB/C mice; 6 h,2858500
same,"expression level, times that of YK-215",female BALB/C mice; 6 hours,56.53 times
same,"expression level, times that of YK-217",female BALB/C mice; 6 hours,116.27 times
same,"average radiation intensity, times that of ALC-0315",female BALB/C mice; 24 h,11.11 times
same,"average radiation intensity, times that of HHMA",female BALB/C mice; 24 h,18.47 times
same,"average radiation intensity, times that of SM-102",female BALB/C mice; 24 h,17.49 times
same,"average radiation intensity, times that of compound 21",female BALB/C mice; 24 h,18.76 times
same,"average radiation intensity, times that of compound 23",female BALB/C mice; 24 h,18.27 times
same,"mRNA expression level, times that of YK-204",female BALB/C mice; 24 h,387.32 times
same,"mRNA expression level, times that of YK-223",female BALB/C mice; 24 h,1134.20 times
same,average radiation intensity (mRNA expression),female BALB/C mice; 24 h,2025680
same,"expression level, times that of YK-215",female BALB/C mice; 24 hours,297.24 times
same,"expression level, times that of YK-217",female BALB/C mice; 24 hours,764.41 times
same,"average radiation intensity, times that of ALC-0315",female BALB/C mice; 48 h,19.16 times
same,"average radiation intensity, times that of HHMA",female BALB/C mice; 48 h,24.82 times
same,"average radiation intensity, times that of SM-102",female BALB/C mice; 48 h,23.91 times
same,"average radiation intensity, times that of compound 21",female BALB/C mice; 48 h,24.34 times
same,"average radiation intensity, times that of compound 23",female BALB/C mice; 48 h,22.78 times
same,"mRNA expression level, times that of YK-204",female BALB/C mice; 48 h,299.49 times
same,"mRNA expression level, times that of YK-223",female BALB/C mice; 48 h,1077.82 times
same,average radiation intensity (mRNA expression),female BALB/C mice; 48 h,730760
same,"expression level, times that of YK-215",female BALB/C mice; 48 hours,200.76 times
same,"expression level, times that of YK-217",female BALB/C mice; 48 hours,713.63 times
same,"average radiation intensity, times that of ALC-0315",female BALB/C mice; 7 d,4.58 times
same,"average radiation intensity, times that of HHMA",female BALB/C mice; 7 d,5.68 times
same,"average radiation intensity, times that of SM-102",female BALB/C mice; 7 d,5.11 times
same,"average radiation intensity, times that of compound 21",female BALB/C mice; 7 d,4.94 times
same,"average radiation intensity, times that of compound 23",female BALB/C mice; 7 d,5.17 times
same,"expression level, times that of YK-215",female BALB/C mice; 7 d,29.56 times
same,"expression level, times that of YK-217",female BALB/C mice; 7 d,57.65 times
same,"mRNA expression level, times that of YK-204",female BALB/C mice; 7 d,39.99 times
same,"mRNA expression level, times that of YK-223",female BALB/C mice; 7 d,68.53 times
same,average radiation intensity (mRNA expression),female BALB/C mice; 7 d,30151
same,"mRNA expression in mice can reach, times that of YK-204",female BALB/C mice; time point not stated,380 times
same,"drug loading concentration, times that of ALC-0315",[1],1.55 times
same,"drug loading concentration, times that of HHMA",[1],1.32 times
same,"drug loading concentration, times that of SM-102",[1],1.58 times
same,"drug loading concentration, times that of YK-009",[1],1.50 times
same,"drug loading concentration, times that of compound 21",[1],1.78 times
same,"drug loading concentration, times that of compound 23",[1],1.95 times
same,"total RNA concentration, times that of ALC-0315",[1],1.21 times
same,"total RNA concentration, times that of HHMA",[1],1.19 times
same,"total RNA concentration, times that of SM-102",[1],1.28 times
same,"total RNA concentration, times that of YK-009",[1],1.17 times
same,"total RNA concentration, times that of compound 21",[1],1.47 times and 1.5 times
same,"total RNA concentration, times that of compound 23",[1],1.39 times
same,Drug loading concentration,[1]; [2],40.32 µg/mL
same,Encapsulation rate,[1]; [2],89.5%
same,Total RNA concentration,[1]; [2],45.07 µg/mL
same,encapsulation rate higher than that of ALC-0315,[1]; difference of rates,26.70%
same,encapsulation rate higher than that of HHMA,[1]; difference of rates,29.00%
same,encapsulation rate higher than that of SM-102,[1]; difference of rates,27.20%
same,encapsulation rate higher than that of YK-009,[1]; difference of rates,26.50%
same,encapsulation rate higher than that of compound 21,[1]; difference of rates,31.70%
same,encapsulation rate higher than that of compound 23,[1]; difference of rates,34.30%
same,"RLU / cell transfection efficiency, times that of ALC-0315",293T cells; Fluc-mRNA LNP,13.27 times
same,"RLU / cell transfection efficiency, times that of HHMA",293T cells; Fluc-mRNA LNP,13.56 times
same,"RLU / cell transfection efficiency, times that of Lipofectamine 3000",293T cells; Fluc-mRNA LNP,23.71 times
same,"RLU / cell transfection efficiency, times that of YK-009",293T cells; Fluc-mRNA LNP,5.56 times
same,"RLU / cell transfection efficiency, times that of compound 21",293T cells; Fluc-mRNA LNP,20.04 times
same,"RLU / cell transfection efficiency, times that of compound 23",293T cells; Fluc-mRNA LNP,21.38 times
same,"cell transfection efficiency, times that of YK-223",293T cells; Fluc-mRNA LNP,379.71 times
same,"cell transfection efficiency, times that of YK-224",293T cells; Fluc-mRNA LNP,323.59 times
same,"cell transfection efficiency, times that of YK-226",293T cells; Fluc-mRNA LNP,493.98 times
same,"fluorescence absorption value / cell transfection efficiency, times that of YK-203",293T cells; Fluc-mRNA LNP,7.36 times
same,"fluorescence absorption value / cell transfection efficiency, times that of YK-204",293T cells; Fluc-mRNA LNP,78 times and 78.25 times
same,"fluorescence absorption value / cell transfection efficiency, times that of YK-205",293T cells; Fluc-mRNA LNP,27.68 times
same,"fluorescence absorption value / cell transfection efficiency, times that of YK-208",293T cells; Fluc-mRNA LNP,7.38 times
same,"fluorescence absorption value / cell transfection efficiency, times that of YK-210",293T cells; Fluc-mRNA LNP,6.15 times
same,"fluorescence absorption value / cell transfection efficiency, times that of YK-211",293T cells; Fluc-mRNA LNP,20.79 times
same,"fluorescence absorption value / cell transfection efficiency, times that of YK-212",293T cells; Fluc-mRNA LNP,7.28 times
same,"fluorescence absorption value / cell transfection efficiency, times that of YK-213",293T cells; Fluc-mRNA LNP,20.87 times
same,"fluorescence absorption value / cell transfection efficiency, times that of YK-214",293T cells; Fluc-mRNA LNP,6.22 times
same,"fluorescence absorption value / cell transfection efficiency, times that of YK-215",293T cells; Fluc-mRNA LNP,29.03 times
same,"fluorescence absorption value / cell transfection efficiency, times that of YK-216",293T cells; Fluc-mRNA LNP,12.49 times
same,"fluorescence absorption value / cell transfection efficiency, times that of YK-217",293T cells; Fluc-mRNA LNP,396.42 times
same,"fluorescence absorption value / cell transfection efficiency, times that of YK-218",293T cells; Fluc-mRNA LNP,46.92 times
same,"fluorescence absorption value / cell transfection efficiency, times that of YK-219",293T cells; Fluc-mRNA LNP,18.91 times
same,"fluorescence absorption value / cell transfection efficiency, times that of YK-220",293T cells; Fluc-mRNA LNP,131.62 times
same,"fluorescence absorption value, times that of YK-222",293T cells; Fluc-mRNA LNP,46.97 times
same,Relative light unit (RLU),"293T cells; LNP containing 0.3 μg Fluc-mRNA, 24 hours",28482617 RLU
same,Multiples of values that equivalent to YK-201,293T cells; RLU of YK-201 / RLU of the named lipid,1.00
same,Multiples of values that equivalent to YK-202,293T cells; RLU of YK-202 / RLU of the named lipid,1.05
same,Ratio relative to SM-102,"293T cells; RLU of the named lipid / RLU of SM-102, times that of SM-102",17.10
